PubChem BioAssay AID1963846 (Molecular Pharmacology Branch, DTP, NCI, 2024)
pIC50: −log10 of the molar value.

Test system: 454973-116-R2-J3-PDC complex spheroid viability
Experiment: Anticancer human tumor 454973-116-R2-J3-PDC patient-derived pancreatic carcinoma cell line growth inhibition [POLQ]
Conditions: for pIC50: curve of first compound; for viability, T/C: stronger effect = lower value; active = viability on the fitted dose curve at most 10% of control; inactive = the rest
How it was run: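 Three-cell-type spheroids modelling solid tumor plus stroma served as the readout system; POL inhibitors were tested individually and in combination, concentration ranges set by clinical Cmax where known.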

[1] = second compound 0.0316 µM, first compound 0.0316 µM
[2] = second compound 0.0316 µM, first compound 0.1 µM
[3] = second compound 0.0316 µM, first compound 0.316 µM
[4] = second compound 0.0316 µM, first compound 1 µM
[5] = second compound 0.0316 µM, first compound 3.16 µM
[6] = second compound 0.0316 µM, first compound 10 µM
[7] = second compound 0.1 µM, first compound 0.0316 µM
[8] = second compound 0.1 µM, first compound 0.1 µM
[9] = second compound 0.1 µM, first compound 0.316 µM
[10] = second compound 0.1 µM, first compound 1 µM
[11] = second compound 0.1 µM, first compound 3.16 µM
[12] = second compound 0.1 µM, first compound 10 µM
[13] = second compound 0.316 µM, first compound 0.0316 µM
[14] = second compound 0.316 µM, first compound 0.1 µM
[15] = second compound 0.316 µM, first compound 0.316 µM
[16] = second compound 0.316 µM, first compound 1 µM
[17] = second compound 0.316 µM, first compound 3.16 µM
[18] = second compound 0.316 µM, first compound 10 µM
[19] = second compound 1 µM, first compound 0.0316 µM
[20] = second compound 1 µM, first compound 0.1 µM
[21] = second compound 1 µM, first compound 0.316 µM
[22] = second compound 1 µM, first compound 1 µM
[23] = second compound 1 µM, first compound 3.16 µM
[24] = second compound 1 µM, first compound 10 µM
[25] = second compound 3.16 µM, first compound 0.0316 µM
[26] = second compound 3.16 µM, first compound 0.1 µM
[27] = second compound 3.16 µM, first compound 0.316 µM
[28] = second compound 3.16 µM, first compound 1 µM
[29] = second compound 3.16 µM, first compound 3.16 µM
[30] = second compound 3.16 µM, first compound 10 µM
[31] = second compound 10 µM, first compound 0.0316 µM
[32] = second compound 10 µM, first compound 0.1 µM
[33] = second compound 10 µM, first compound 0.316 µM
[34] = second compound 10 µM, first compound 1 µM
[35] = second compound 10 µM, first compound 3.16 µM
[36] = second compound 10 µM, first compound 10 µM
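Note: spheroids exposed to drugs for seven days before measurement.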
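Throughout, for viability, T/C: percent viability relative to DMSO vehicle control wells taken as 100%.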

C#Cc1c(F)ccc2cc(O)cc(-c3ncc4c(N5CC6CCC(C5)N6)nc(OCC56CCCN5CC(F)C6)nc4c3F)c12 (stereo unspecified) + Cc1cccc(N(C)C(=O)C2C(O)CCN2c2nc(C)cc(C(F)(F)F)c2C#N)c1
> 7.50: pIC50 (second compound 10 µM)
7.32: pIC50 (second compound 3.16 µM)
7.18: pIC50 (second compound 0.0316 µM)
inactive: viability, T/C [1] 60.8% | viability, T/C [2] 44.5% | viability, T/C [3] 32.2% | viability, T/C [4] 25.6% | viability, T/C [5] 23% | viability, T/C [6] 19.5% | viability, T/C [7] 65.3% | viability, T/C [8] 43.8% | viability, T/C [9] 32.6% | viability, T/C [10] 30.1% | viability, T/C [11] 26.5% | viability, T/C [12] 26.6% | viability, T/C [13] 66.6% | viability, T/C [14] 44.4% | viability, T/C [15] 32.8% | viability, T/C [16] 27.9% | viability, T/C [17] 23.2% | viability, T/C [18] 28.9% | viability, T/C [19] 56% | viability, T/C [20] 45.3% | viability, T/C [21] 31.9% | viability, T/C [22] 25.2% | viability, T/C [23] 26.5% | viability, T/C [24] 25.3% | viability, T/C [25] 52.9% | viability, T/C [26] 44.5% | viability, T/C [27] 35.1% | viability, T/C [28] 23.9% | viability, T/C [29] 28.2% | viability, T/C [30] 24.4% | viability, T/C [31] 50% | viability, T/C [32] 38.5% | viability, T/C [33] 36% | viability, T/C [34] 31.8% | viability, T/C [35] 29.1% | viability, T/C [36] 23.7%
7.15: pIC50 (second compound 0.1 µM)
7.22: pIC50 (second compound 1 µM)
7.14: pIC50 (second compound 0.316 µM)

C=CC(=O)N1CCN(c2nc(=O)n(-c3c(C)ccnc3C(C)C)c3nc(-c4c(O)cccc4F)c(F)cc23)C(C)C1 (stereo unspecified) + Cc1cccc(N(C)C(=O)C2C(O)CCN2c2nc(C)cc(C(F)(F)F)c2C#N)c1
inactive: viability, T/C [1] 100% | viability, T/C [2] 99.5% | viability, T/C [3] 98.7% | viability, T/C [4] 115% | viability, T/C [5] 106% | viability, T/C [6] 109% | viability, T/C [7] 96.9% | viability, T/C [8] 101% | viability, T/C [9] 107% | viability, T/C [10] 107% | viability, T/C [11] 110% | viability, T/C [12] 115% | viability, T/C [13] 101% | viability, T/C [14] 107% | viability, T/C [15] 108% | viability, T/C [16] 106% | viability, T/C [17] 108% | viability, T/C [18] 111% | viability, T/C [19] 108% | viability, T/C [20] 102% | viability, T/C [21] 115% | viability, T/C [22] 105% | viability, T/C [23] 110% | viability, T/C [24] 110% | viability, T/C [25] 107% | viability, T/C [26] 111% | viability, T/C [27] 103% | viability, T/C [28] 118% | viability, T/C [29] 112% | viability, T/C [30] 108% | viability, T/C [31] 115% | viability, T/C [32] 102% | viability, T/C [33] 109% | viability, T/C [34] 113% | viability, T/C [35] 111% | viability, T/C [36] 109%
< 5.00: pIC50 (second compound 0.0316 µM) | pIC50 (second compound 0.1 µM) | pIC50 (second compound 0.316 µM) | pIC50 (second compound 1 µM) | pIC50 (second compound 3.16 µM) | pIC50 (second compound 10 µM)

CC(C)n1c(=O)n(C)c2cnc3cc(F)c(-c4ccc(OCCCN5CCCCC5)nc4)cc3c21 + Cc1cccc(N(C)C(=O)C2C(O)CCN2c2nc(C)cc(C(F)(F)F)c2C#N)c1
inactive: viability, T/C [1] 97.4% | viability, T/C [2] 96.4% | viability, T/C [3] 103% | viability, T/C [4] 99.7% | viability, T/C [5] 105% | viability, T/C [6] 77.2% | viability, T/C [7] 97.3% | viability, T/C [8] 105% | viability, T/C [9] 101% | viability, T/C [10] 113% | viability, T/C [11] 107% | viability, T/C [12] 85% | viability, T/C [13] 105% | viability, T/C [14] 110% | viability, T/C [15] 114% | viability, T/C [16] 104% | viability, T/C [17] 97.1% | viability, T/C [18] 86.8% | viability, T/C [19] 103% | viability, T/C [20] 105% | viability, T/C [21] 110% | viability, T/C [22] 116% | viability, T/C [23] 104% | viability, T/C [24] 87.3% | viability, T/C [25] 109% | viability, T/C [26] 106% | viability, T/C [27] 108% | viability, T/C [28] 99.3% | viability, T/C [29] 101% | viability, T/C [30] 86% | viability, T/C [31] 114% | viability, T/C [32] 110% | viability, T/C [33] 96.6% | viability, T/C [34] 98.6% | viability, T/C [35] 97.3% | viability, T/C [36] 79%
< 5.00: pIC50 (second compound 0.0316 µM) | pIC50 (second compound 0.1 µM) | pIC50 (second compound 0.316 µM) | pIC50 (second compound 1 µM) | pIC50 (second compound 3.16 µM) | pIC50 (second compound 10 µM)
